Source: patent US20230181569A1, “COMPOSITIONS AND METHODS TO TREAT POLYCYSTIC KIDNEY DISEASE” (Board of Supervisors of Louisiana State University and …, priority 2020, published 2023)
Where two headings read alike, the source gives them in different places.

What was measured:
Sprague-Dawley rats = details: cited from earlier work; for urine output: Sprague-Dawley rats; for sedation and hyperphagia: rat, in vivo
[1] = in vivo; cited from earlier work
Pkd1 RC/RC mice = test: Chronic daily oral gavage of KOA in Pkd1 RC/RC mice (Example 1, Studies 1 and 2); type: in vivo; details: daily oral gavage 4 or 8 weeks; for fibrosis area in the kidney / serum creatinine and blood urea levels / cyst size and numbers: Pkd1 RC/RC mice; for cyst size and numbers: 5 mg/kg JT-09 or 100 µg/kg nalfurafine; for GFR: mice with PKD
Experimental: Pkd1 RC/RC mice were used as the polycystic kidney disease model. 12 weeks old mice were given a KOA treatment (JT-09 or nalfurafine) or a vehicle at a dose of 5 mg/kg for JT-09 or 100 µg/kg for nalfurafine daily for 4 or 8 weeks.
Group 1: Pkd1 RC/RC mice + treatment (JT09 or nalfurafine) oral gavage (5 mg/kg for JT-09 or 100 µg/kg for nalfurafine) daily. n=24
Group 2: Pkd1 RC/RC mice + vehicle oral gavage daily. n=24
At 16 weeks old, 12 mice from both groups 1 and 2 were selected. These mice were each placed in a metabolic cage to collect urine for three 24-hour periods (a total of 72 hours). Each mouse was placed in a separate metabolic cage, as opposed to all mice in a single metabolic cage. Daily water intake for each mouse is also recorded. Mice were then deep anesthetized, and blood was be taken from their artery. Mice were then sacrificed. Both kidneys were perfused with PBS and fixed in neutral buffered formalin. Kidneys were processed for paraffin embedding and sectioning. H&E and picrosirus stain were performed on each section. Cystic index including cysts size and number were evaluated by a pathologist. Fibrosis was evaluated by the pathologist as well; in addition, a fibrotic score was given. The serum creatinine and blood urea level in the blood was then measured.
At 20 weeks old, the other set of 12 mice in both groups was then sacrificed and the same experiment was be performed as described herein.
At 16 weeks old, 12 mice from each group were anesthetized. The right jugular vein was catheterized for inulin infusion, and the bladder was catheterized for urine collection. GFR was evaluated based on the excretion rate of FITC-sinistrin.
At 20 weeks old, the same GFR measure was be repeated on the other 12 mice from each group.

Pkd1^RC/RC mice = test: Acute oral gavage of nalfurafine, urine output in PKD mice; type: in vivo
Experimental: Volume expansion, give mice saline at the dose of 20 ml/kg. (b) dose responsive curve of nalfurafine in Pkd1^RC/RC mice. Y axis, accumulative urine output of 5 hours after dosing. n=7-10 in each group.
ADPKD patients have an elevated level of vasopressin. Based on this observation, tolvaptan was discovered and later approved by its mechanism of action of blocking V2 receptors on the distal tubules. However, this also leads to the side effect of polyuria and severe thirst. […] Therefore, the long-term effects by nalfurafine on urine output can be limited unlike tolvaptan.
Therefore, we will give PKD mice nalfurafine daily at the maximum responsive dose 240 ug/kg/day for chronic studies in both Aim 1 and Aim 2 to obtain the greatest benefits.

patients [2] = details: cited from earlier work
affected skin = details: atopic dermatitis and pruritus; cited from earlier work
Sprague Dawley rats = test: Stability of drug dissolved in drinking water, read out as urine output in rats; type: in vivo
Experimental: Day 1, the fresh made drug was given to rats. Day 4, the drug made on day 1 was given to the same rats. Veh, vehicle; Nal, nalfurafine. n=3 for each group.
Route of administration: Drug will be given orally in drinking water. We have performed a study to test the stability of the drug. […] We then left this water bottle at room temperature for three days, and we then gave this water to the same rats again. […] Therefore, the drug is stable for 3 days when it is dissolved in water at room temperature. We will make fresh nalfurafine in drinking water every 3 days in the chronic studies in both Aim 1 and Aim 2. We will give another group of mice the standard care of tolvaptan to serve as comparison of the treatment.

[3] = cited from earlier work
WT mice = test: Oral gavage of nalfurafine, urine output in wild type mice; type: in vivo
Experimental: The dose volume is 20 ml/kg.
Polycystic kidney disease (PKD) affects one person in every 400 to 1000 people in the U.S., which is associated with substantial mortality. […] There is no cure for PKD, and currently only one treatment is available to delay progression: tolvaptan, a vasopressin V2 receptor antagonist. This drug is expensive and indicated only in some patients who are at high risk for progression. The efficacy of tolvaptan proves that an active vasopressin pathway plays a critical role in this disease progression. However, the drug carries risk of severe hepatic toxicity, and patients treated with tolvaptan are suffering serious side effects, such as severe thirst and polyuria due to inhibition of V2 receptor in the distal nephrons. […] In addition to their inhibitory effect on vasopressin secretion and subsequent diuretic effect, KOAs can produce an anti-inflammatory micro-environment at the cellular level, which protects cardiac tissue from fibrosis.

kappa receptors = kappa receptors (Homo sapiens, UniProt P41145); details: cited from earlier work
patients [4] = details: patients treated with tolvaptan; cited from earlier work
[5] = cited from earlier work; remark: listed apart in the source
patients [6] = details: human trials; cited from earlier work
conscious rats = details: cited from earlier work
[7] = i.c.v. or i.v. infusion, conscious rats

Chain of kappa receptors (P41145 whole entry): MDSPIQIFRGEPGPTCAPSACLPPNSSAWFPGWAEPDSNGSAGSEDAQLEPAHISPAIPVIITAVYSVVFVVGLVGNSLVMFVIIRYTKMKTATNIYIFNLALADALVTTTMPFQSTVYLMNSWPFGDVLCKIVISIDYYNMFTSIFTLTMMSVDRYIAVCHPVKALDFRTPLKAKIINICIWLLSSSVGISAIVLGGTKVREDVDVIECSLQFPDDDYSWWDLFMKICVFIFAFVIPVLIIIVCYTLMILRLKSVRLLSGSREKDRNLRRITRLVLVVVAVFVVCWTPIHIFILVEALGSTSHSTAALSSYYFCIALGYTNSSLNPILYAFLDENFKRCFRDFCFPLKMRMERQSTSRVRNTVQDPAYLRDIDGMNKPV

## CC(C)C1CCC(N2CCC(N3C(=O)C(=O)c4ccccc43)CC2)CC1 (centres unmarked) [AT-090]
Sprague-Dawley rats
  urine output: increase urine output
  sedation and hyperphagia: sedation and hyperphagia

## CC(C)C1CCC(N2CCC(N3C(=O)/C(=N\O)c4ccccc43)CC2)CC1 (centres unmarked) [AT-127]
Sprague-Dawley rats
  urine output: increase urine output
  sedation and hyperphagia: sedation and hyperphagia

## CC(C)C1CCC(N2CCC(n3c(CO)c(CO)c4ccccc43)CC2)CC1 (centres unmarked) [AT-390]
Sprague-Dawley rats
  urine output: increase urine output

## CNC(=O)CC1C(=O)N(C2CCN(C3CCC(C(C)C)CC3)CC2)c2ccccc21 (centres unmarked) [AT-403]
Sprague-Dawley rats
  urine output: increase urine output
  sedation and hyperphagia: sedation and hyperphagia

## CCCC[C@@H](NC(=O)[C@@H](Cc1ccccc1)NC(=O)[C@H](N)Cc1ccccc1)C(=O)N[C@H](CCCCN(C)C)C(=O)NCc1ccncc1 [JT09]
[1]
  serum creatinine levels: reduces serum creatinine levels
  urine output: increases urine output
Pkd1 RC/RC mice
  fibrosis area in the kidney: reduce fibrosis area in the kidney
  serum creatinine and blood urea levels: decrease serum creatinine and blood urea levels
  cyst size and numbers: decrease cyst size and numbers
  GFR: improve GFR

## CN(C(=O)/C=C/c1ccoc1)[C@@H]1CC[C@@]2(O)[C@H]3Cc4ccc(O)c5c4[C@@]2(CCN3CC2CC2)[C@H]1O5 [nalfurafine]
Pkd1^RC/RC mice; Pkd1^RC/RC mice, accumulative urine output of 5 hours after dosing
  dose dependence of the increase in urine output: dose dependent
Pkd1^RC/RC mice; Pkd1^RC/RC mice, doses of 100, 130, 180, 240 and 320 ug/kg
  dose with the greatest increase in 5-hour urine output: 0.24 mg/kg
Pkd1^RC/RC mice; acute study
  highest effective dose in acute study: 0.24 mg/kg
Pkd1^RC/RC mice; oral administration, mice with PKD, within the 3 hours after dosing (FIG. 24a: 240 ug/kg)
  urine output compared with vehicle treatment: significant increase in urine output
Patients [2]; clinical trials of nalfurafine
  polyuria as a side effect: none of the clinical trials of nalfurafine have reported polyuria
Patients [2]; human, in vivo
  CNS-mediated side effects of traditional opioids (nausea/vomiting, sedation, respiratory depression, abuse potential, addiction, euphoria): does not produce the CNS-mediated side effects
Patients [2]; one year post-marketing surveillance study
  extreme thirst and polyuria: does not cause extreme thirst nor polyuria
Patients [2]; post marketing analysis of 3,762 patients
  insomnia (worst side effect), share of patients: approximately 3%
Affected skin
  infiltration of CD4+ and CD8+ T cells: reduced infiltration of CD4+ T cells and CD8+ T cells in the affected skin
Sprague Dawley rats; rats, first day, 30 ug/kg single dose
  diuresis after fresh drug dissolved in water: produced diuresis
Sprague Dawley rats; same rats, drug solution kept at room temperature for three days
  magnitude of increase in urine output, day 4 versus day 1: the same on day 4 as it was on day 1
Sprague Dawley rats; water, room temperature
  stability when dissolved in water at room temperature: 3 days
[3]; healthy volunteers
  half life: 8 h
[3]; hemodialysis patients
  half life: 10 to 15 h
Pkd1 RC/RC mice
  fibrosis area in the kidney: reduce fibrosis area in the kidney
  serum creatinine and blood urea levels: decrease serum creatinine and blood urea levels
  cyst size and numbers: decrease cyst size and numbers
  GFR: improve GFR
WT mice; mouse, in vivo
  behavioral or adverse effects: does not produce any apparent behavioral or adverse effects
WT mice; oral gavage, wild type mice
  urine output: marked increase in urine output
Kappa receptors
  selectivity for kappa receptors: highly selective for kappa receptors

## Cc1ccccc1C(=O)Nc1ccc(C(=O)N2CCCC(O)c3cc(Cl)ccc32)c(C)c1 (centres unmarked) [tolvaptan]
Patients [4]
  undesirable side effects: severe thirst, polyuria and hepatic toxicity
[5]
  water solubility: poor water solubility

## Ac—Arg—Tyr—Tyr—Arg—Trp—Lys—Lys—Lys—Lys—Lys—Lys—Lys—NH2 (Ac-RYYRWKKKKKKK-NH2) [ZP120, peptide NOP receptor partial agonist]
Patients [6]
  blood pressure: efficacious in lowering blood pressure

## nociceptin (FGGFTGARKSARKLANQ; Nociceptin; UniProt Q13519 130-146, looked up) [17 amino acid peptide, classical ligand of the nociceptin opioid peptide receptor]
Conscious rats; administered centrally
  circulating levels of vasopressin: reduces circulating levels of vasopressin
Conscious rats; centrally (i.c.v.) or at high doses peripherally (i.v. bolus or infusion)
  blood pressure, heart rate and peripheral sympathetic nerve activity: decreases blood pressure, heart rate and peripheral sympathetic nerve activity
Conscious rats; [7]
  urinary sodium excretion: decrease in urinary sodium excretion
  urine flow rate: marked increase in urine flow rate
